Data published in patent publication US10238593B2, “System and method for preventing alopecia” (FOLLEA INTERNATIONAL, priority 2014, dated 2019).

Columns and labels:
scalp hair = experiment: Hair shedding: hairs removed with brush, 4-day protocol (Example 5); assay type: in vivo, human
Source text: Patients: Fifteen female subjects, ages 18-40, were included in the study. Subjects were recruited based on their frequent use of traumatic hair care practices, such as, tight braids, head scarves, ponytails, extensions, hair rollers, hair weaves and heated styling appliances such as blow dryers, flat irons, heat setters and curling irons. Subjects with uncontrolled hypertension, that were pregnant or breastfeeding, had been diagnosed with pattern hair loss or with other hair loss in conjunction with female pattern hair loss were excluded from the study. […] Piloerection and blanching were visible after 30 minutes; the effect lasted for approximately 2-3 hours.
Hair Shedding: To measure hair loss during cosmetic procedures, a 4-day protocol was designed. On the first day patients were instructed to wash their hair and use styling products and procedures as they normally would. On the second day, patients were instructed not to wash their hair and to apply 0.5 mL of a placebo solution, containing a vehicle only, on the frontal area of the scalp in an 8×10 cm2 target area. Patients were instructed to wait 45 minutes, after which, they brushed their hair 20 times from the front of the scalp to the bottom of head using a new brush. After the procedure, the brushes were sealed in a plastic bag. […] After each clinical procedure, the investigator counted the hairs collected on each brush. […]

scalp hair follicles = experiment: Epilation force measured with trichotillometer (Example 5); assay type: in vivo, human; conditions: average of 10 subjects
Experimental: To evaluate the effect of a topically applied α1-AR agonist on the force required to pluck hairs from the scalp, a hand-held spring dynamometer, or “trichotillometer” was used (8). The trichotillometer records the maximum force threshold, in grams, required to pluck a single hair from the scalp; the performance and statistical variance of the instrument have been reported previously (8-10). Force measurements were performed using the trichotillometer on 10 subjects. The frontal area of scalp was divided into two 8×10 cm2 areas. On the right side 0.5 mL of a placebo vehicle was applied. […] After 45 minutes, ten hairs were plucked from each of the target areas with the trichotillometer.

CNC[C@H](O)c1cccc(O)c1 [phenylephrine]
subjects with reduced shedding compared to placebo (scalp hair; 15 female subjects, blinded study): 80% | AVERAGE reduction in hair loss vs placebo (scalp hair; average of 15 subjects): approximately 42% | AVERAGE increase of epilation force threshold vs placebo (scalp hair follicles): approximately 172%
